The text below walks through data of US4343808A, “Method of inhibiting sickling of sickle erythrocytes” (The Dow Chemical Company, priority 1980, dated 1982).

For series [1], the target named is Hb-S (Homo sapiens, UniProt P68871+P69905, E7V). As to the kind of experiment: Oxygen-Affinity Assay (whole Hb-S blood). The class given is cell-based. The note with it: 37° C. The method, then: The compounds described herein were tested in an "Oxygen-Affinity Assay" to measure the ability of the compound to influence the Hb-S oxygen affinity. There is a relationship between oxygen binding and Hb-S gelation and thus a measure of oxygen affinity is an index of Hb-S aggregation within the red blood cell. Hemoglobin S polymers decrease the overall oxygen affinity. Thus a return to normal of Hb-S oxygen affinity is a measure of decreased gelation.
For measurements of oxygen equilibria whole Hb-S blood was equilibrated in a tonometer at 37° C. and measurements were made in the presence of a 10 millimolar (mM) concentration of the test compound. Some of the compounds were also tested at a 5 mM concentration. The whole blood pH, oxygen tension, and blood PO2 were measured.
The percentage of oxygen saturation was plotted against the partial pressure of oxygen (mm Hg). The P50 value (oxygen tension at 50% saturation) was determined for each control and treated whole blood sample and the difference (ΔP50) between the control and treated whole blood sample noted. As used herein, a negative ΔP50 represents a change toward a normal Hb-S oxygen affinity and thus is a measure of the test compound's ability to inhibit the sickling of sickle erythrocytes.

Series [2] concerns sickle erythrocytes (intact sickle cells). As to the kind of experiment: Blockade Erythrocyte Morphology, deoxygenation induced sickling. The class given is cell-based, human. The method, then: The compound 2-((4-cyanophenoxy)methyl)-2-imidazoline p-toluenesulfonate (Example 2) and 2-((3-cyanophenoxy)methyl)-2-imidazoline p-toluenesulfonate (Example 4) were tested for anti-sickling activity using a suspension of intact sickle cells as follows:
Blood collected from individuals with homozygous sickle cell disease, as well as normal blood, was anticoagulated with ethylenediaminetetraacetic acid (EDTA) and refrigerated until used. To portions of the blood samples were added appropriate volumes of a solution of the compound to be tested so that final concentrations of 0.0125 molar (M), 0.025 M, 0.05 M or 0.1 M were obtained, and the mixtures were incubated at 37° C. for 30 minutes. The test compounds were dissolved in saline. Appropriate volumes of saline were added to the control samples. Urea in invert sugar (UIS) at 0.05 M to 1.5 M concentrations was used as an agent capable of transforming sickled cells into normal forms and was therefore used as a positive control.
Anoxic sickling (deoxygenation) was induced by exposing sickle blood to a hydrated 95% nitrogen, 5% carbon dioxide atmosphere for 60 minutes.
After the sickling stimulus, slides were prepared. A volume of 0.2 ml of sickled cells were fixed in 1.0 ml of 3.2% glutaraldehyde in 0.1 M cacodylic buffer. Wet slides were prepared and sealed.
The slides were scored for normal cells (Typ.), atypical cells (Atyp.) and sickled cells (Sickle) on the basis of counting 300 cells per slide.

Series [3] has as its target T1, deoxyhemoglobin S (Deoxy Hb-S) (Homo sapiens, UniProt P68871+P69905, E7V).
T1 construct: native tetramer alpha2 betaS2
As to the kind of experiment: Solubility of deoxyhemoglobin S (hemoglobin gelation). It is filed as biochemical. The note with it: 10 mM. The method, then: The compound 2-((3-cyanophenoxy)methyl)-2-imidazoline p-toluenesulfonate was tested to determine its ability to inhibit sickle erythrocyte hemoglobin gelation as follows:
The solubility of deoxyhemoglobin S (Deoxy Hb-S) was determined utilizing substantially the same procedure described by Behe, M. J., Englander, S. W., Biochemistry 18: 4196-4201 (1979). Assays were done to determine the equilibrium solubility of Hb-S in the presence of inhibitor (i.e., test compound). […] Test mixtures were placed in a 4 centimeter (cm) length of thin quartz tubing sealed at one end, and then incubated at 37° C. for two hours to achieve gelation, and then re-equilibrated in a water bath (20° C.) for 20 minutes. The quartz tubing containing the test mixture was then placed in a glycerol filled centrifuge tube (topped by a rubber ring to center the quartz tubing) and centrifuged for two hours at 140,000 times gravity. […] The concentration of the hemoglobin in the supernatant was determined by measuring the absorbance at 540 nanometers (nm) after a 300-fold dilution with normally oxygenated buffer.
The Relative Solubility is a measure of the ability of the test compound to increase the solubility of deoxyhemoglobin S and is readily determined by comparing the solubility of the treated (i.e., test compound present) sample versus the control (i.e., test compound absent) sample.

The mark [4] stands for this setting: deoxygenation, 0.0125 M, vs control.
[5] abbreviates: deoxygenation, 0.025 M, vs control.
Where [6] appears, read: deoxygenation, 0.05 M, vs control.

Structures are written as SMILES.

Take `Cl.FC(F)(F)c1cccc(OCC2=NCCN2)c1` [Example 7, 2-(3-Trifluoromethylphenoxy)methyl-2-imidazoline Hydrochloride]: the “Δ P50 (oxygen tension at 50% saturation, difference control vs treated)” value in series [1] (10 mM) is -3.0 mm Hg.
The same measure, in the same setting: to `Cl.c1ccc(OCC2=NCCN2)cc1` [Example 8, 2-(Phenoxymethyl)-2-imidazoline Hydrochloride] belongs -5.0 mm Hg; to `Cl.FC(F)(F)c1cccc(NCC2=NCCN2)c1` [Example 6, 2-((3-Trifluoromethylanilino)methyl)-2-imidazoline Hydrochloride], -4.3 mm Hg.
On to `CSc1ccc(OCC2=NCCN2)cc1C` [Example 5, 2-((4-(Methylthio)-m-tolyloxy)methyl)-2-imidazoline], for which the “Δ P50 (oxygen tension at 50% saturation, difference control vs treated)” value is reported as -11 mm Hg in series [1] (5 mM) and -14.7 mm Hg in series [1] (10 mM).
Consider `Cc1ccc(S(=O)(=O)O)cc1.N#Cc1cccc(OCC2=NCCN2)c1` [Example 4, 2-((3-cyanophenoxy)methyl)-2-imidazoline p-toluenesulfonate], for which the inhibition at 12500 µM in series [2] (Homo sapiens, Erythrocyte, deoxygenation, 0.0125 M, vs control, read-out: Percent Change, Sickle (sickled cells)) amounted to 33%. In addition, the inhibition at 25000 µM in series [2] (Homo sapiens, Erythrocyte, deoxygenation, 0.025 M, vs control, read-out: Percent Change, Sickle (sickled cells)) amounted to 69%. For the same compound, in series [2] (Homo sapiens, Erythrocyte, deoxygenation, 0.05 M, vs control, read-out: Percent Change, Sickle (sickled cells)), the inhibition at 50000 µM turned out to be 77%. For the same compound, the “interference with deoxygenation induced sickling” value in series [2] (Table 1) is listed as “interfered with deoxygenation induced sickling”. In addition, the Lysis entry is recorded as “-” in series [2] (deoxygenation, 0.0125 M); “-” in series [2] (deoxygenation, 0.025 M); “-” in series [2] (deoxygenation, 0.05 M). Further, the “Percent Change, Atyp. (atypical cells)” value in series [2] (setting [4]) was -65%; in series [2] (setting [5]) it was -78%; in series [2] (setting [6]), -74%. For the same compound, the “Percent Change, Typ. (normal cells)” value in series [2] (setting [4]) is given as “+201%”; in series [2] (setting [5]), “+316%”; in series [2] (setting [6]) it was “+407%”. Further, the “cell lysis (in words)” value in series [2] (deoxygenation, 0.05 M) was “without the appearance of cell lysis”. The “Δ P50 (oxygen tension at 50% saturation, difference control vs treated)” value in series [1] (5 mM) is -1 mm Hg; in series [1] (10 mM) it was -13.7 mm Hg. In addition, the “solubility of deoxyhemoglobin S (in words)” value in series [3] was “increased”.
Regarding `CS(=O)(=O)c1ccc(OCC2=NCCN2)cc1.Cl` [Example 3, 2-((4-(Methylsulfonyl)phenoxy)methyl)-2-imidazoline Hydrochloride], in series [1] (10 mM), the “Δ P50 (oxygen tension at 50% saturation, difference control vs treated)” value is -7.0 mm Hg.
As for `O=[N+]([O-])c1cccc(OCC2=NCCN2)c1` [Example 1], the “Δ P50 (oxygen tension at 50% saturation, difference control vs treated)” value in series [1] (5 mM) was -2 mm Hg; in series [1] (10 mM), -10.6 mm Hg.
